Legend:
A172 = experiment: MTT assay, A172; assay type: cell-based; settings: Homo sapiens, A 172; A172, 24 h of incubation; read-out: IC50 values ± SEM, MTT assay
Description: (§1) Human glioblastoma cell lines (A172 CRL-1620™, U-87 MG HTB-14™, U-118 MG HTB-15™, T98G CRL-1690™) and the mouse astrocyte cell line (C8-D1A CRL-2541™) were obtained from the American Type Culture Collection (ATCC, Manassas, VA, USA). The cell lines were cultured in complete medium: DMEM (Corning, Kennebunk, ME, USA) for C8-D1A and T98G, and EMEM (ATCC, Manassas, VA, USA) for A172, U-87 MG, U118MG. The media were supplemented with 10% foetal bovine serum (Eurx, Gdansk, Poland) and 1% penicillin-streptomycin solution (Corning, Kennebunk, ME, USA). Cells were cultured in cell culture flasks (Sarstedt, Numbrecht, Germany) at 37 °C in 5% CO2. For experiments, cells were washed with phosphate-buffered saline without calcium and magnesium (Corning, Kennebunk, ME, USA) and treated with 0.05% trypsin and 0.02% EDTA (Corning, Kennebunk, ME, USA). Cells were counted using a Sceptre 3.0 cell counter (Merck Millipore, Burlington, MA, USA) prior to seeding into plates. For 6-well plates, 5 x 10^5 cells/mL were seeded, while for 96-well plates (Sarstedt, Numbrecht, Germany), 1 x 10^5 cells/mL were seeded in 100 μL of the medium.
(§2) The cell lines were seeded in 96-well plates and cultured according to the methodology described in the previous section. Cells were then treated with the novel derivatives MM118 and MM119 and the reference compound temozolomide (TMZ) (Sigma-Aldrich, St. Louis, MO, USA) at concentrations of 0.1, 0.25, 0.5, 1.0, 2.5, 5.0, and 10.0 μM for 24 h. The MTT assay was performed using a solution of 3–(4,5-dimethyl-2-thiazolyl)-2,5-diphenyl-2H-tetrazolium bromide (Sigma-Aldrich, St. Louis, MO, USA) at a concentration of 5 mg/mL in phosphate-buffered saline without calcium and magnesium (Corning, Kennebunk, ME, USA). After 24 h incubation with test compounds, 10 μL MTT solution was added to each well, and cells were incubated for another 2 h at 37 °C. The cells were then lysed in 100 μL lysis buffer (25 mM HCl, 2% acetic acid, 3% DMF, and 5% SDS, adjusted to pH 4.7). Absorbance was measured at 570 nm using an Absorbance 96 microplate reader (Byonoy GmbH, Hamburg, Germany).

caspase 9 = experiment: Caspase 9 activation (FAM FLICA), A172; assay type: cell-based, human; settings: A172, 1.5 μM, 24 h
Description: The activity of caspase 1, caspase 3/7, caspase 8, and caspase 9 was evaluated through the utilisation of FAM FLICA Caspase Assays (ImmunoChemistry Technologies, Bloomington, MN, USA), in accordance with the established protocols. Following treatment with the compounds, the cells were collected at a concentration of 1 × 10^6 cells/mL, washed twice with cold PBS, and resuspended in 290 μL of PBS. The subsequent step involved the addition of 10 μL of 30X FLICA solution, followed by incubation at 37 °C in the absence of light for one hour. Then, 2 ml of Apoptosis Wash Buffer was added, and the samples were washed twice. A 300 μL aliquot of each sample was transferred to a BD FACSCanto II flow cytometer (Becton Dickinson Biosciences, San Jose, CA, USA), where 10,000 events per sample were recorded. The resulting data was then analysed using FACSDiva software, version 6.1.3 (BD Biosciences Systems, San Jose, CA, USA).

C8-D1A = experiment: MTT assay, C8-D1A astrocytes; assay type: cell-based; settings: C8-D1A mouse astrocytes, 24 h of incubation; read-out: IC50 values ± SEM, MTT assay
Description: as §1, §2

U-87 MG = experiment: Annexin V-FITC/PI apoptosis analysis, U-87 MG; assay type: cell-based, human; settings: 1.5 μM, 24 h
Description: (§3) The level of apoptosis induction of the newly synthesised compounds MM118 and MM119 was determined using double staining with Annexin V-FITC and propidium iodide (AV/PI). This method enables the differentiation of four cell populations based on their state: viable cells, necrotic cells, cells in early apoptosis, and late apoptosis. The compounds were analysed on A172 and U-87 MG human glioblastoma multiforme cell lines using concentrations of 1 μM and 1.5 μM over a 24-h exposure period.
(§4) The impact of apoptosis induction by the tested compounds at concentrations of 1 μM and 1.5 μM, as well as by temozolomide at 1.5 μM, was evaluated through annexin V-FITC and propidium iodide (PI) staining with the Apoptosis Detection Kit II (BD Biosciences, San Diego, CA, USA). The glioblastoma cell lines A172 and U-87 MG were then deprived of medium and washed several times with cold phosphate-buffered saline (PBS) solution. The cell suspension was then prepared in the binding buffer provided in the kit at a concentration of 1 × 10^6 cells/mL. From each sample, 100 μL of the cell suspension was transferred to tubes and subsequently treated with 5 μL of Annexin V-FITC and 5 μL of propidium iodide (PI). The tubes were then incubated for 15 min at room temperature in the dark. Following the incubation period, 400 μL of binding buffer was added to each sample, after which the samples were immediately analysed using a BD FACSCanto II flow cytometer (Becton Dickinson Biosciences, San Jose, CA, USA), with 10,000 events recorded per sample. The results were then analysed using FACSDiva Software Version 6.1.3 (BD Biosciences Systems, San Jose, CA, USA).

[1] = Annexin V-FITC/PI apoptosis analysis, U-87 MG; assay type: cell-based, human; settings: human, U-87 MG cells, read-out: Viable cells
Description: as §3, §4

| Structure (SMILES) | IC50 (A172) | Active caspase 9 (cell population) (caspase 9) | IC50 (C8-D1A) | Early apoptotic cells (U-87 MG) | Late apoptotic cells (U-87 MG) | Necrotic cells (U-87 MG) | viability at 24 h, 1 µM [1] | viability at 24 h, 1.5 µM [1] | Viable cells (U-87 MG) |
| --- | --- | --- | --- | --- | --- | --- | --- | --- | --- |
| CCC(CO)NS(=O)(=O)c1ccc(-n2nc(C)c3nc4nnnn4nc32)cc1 (stereo in doubt) [MM118, N-(R)-(1-hydroxy-but-2-yl)-4-[7-methyl-5H-pyrazolo[4,3-e]tetrazolo[1,5-b][1]^,[2]^,[4]triazin-5-yl)]benzenesulfonamide] | 889 ± 243 nM | 31.55 ± 8.07% | 2190 ± 340 nM | 10.28 ± 4.08% | 38.73 ± 4.09% | 2.30 ± 1.81% | 76.2% | 48.8 ± 3.9% |  |
| CCC(CO)NS(=O)(=O)c1ccc(-n2nc(C)c3nc4nnnn4nc32)cc1 (stereo in doubt) [MM119, N-(S)-(1-hydroxy-but-2-yl)-4-[7-methyl-5H-pyrazolo[4,3-e]tetrazolo[1,5-b][1]^,[2]^,[4]triazin-5-yl)]benzenesulfonamide] | 1240 ± 386 nM | 25.50 ± 6.04% | 2250 ± 294 nM | 10.18 ± 4.45% | 37.40 ± 6.20% | 1.95 ± 1.42% | 85.4% | 50.5 ± 7.23% |  |
| Cn1nnc2c(C(N)=O)ncn2c1=O [TMZ, temozolomide, reference compound] | > 10000 nM | no significant differences | > 10000 nM | 3.40 ± 1.63% | 4.73 ± 0.64% | 0.25 ± 0.24% |  | 93.4% | 91.65 ± 1.58% |

— paper PMC12679848, “Sulphonamide derivatives with a triazine core as novel inducers of apoptosis and pyroptosis in glioblastoma multiforme cells” (Journal of Enzyme Inhibition and Medicinal Chemistry, 2025)
